Test results: patent US11124486B2, “6-membered heterocyclic derivatives and pharmaceutical composition comprising the same” (Shionogi & Co., Ltd., priority 2015, dated 2021)
pIC50: −log10 of the molar value. Read-outs that look alike come from different tables or passages of the source.

Molecular target: human P2X7 receptor (Homo sapiens, UniProt Q99572, R270H/Y155H)
Assay: Evaluation of a human P2X7 receptor inhibitory activity (Yo-Pro uptake, BzATP stimulation, FLIPR TETRA)
Format: cell-based
Description: Test Example 1 Evaluation of a Human P2X7 Receptor Inhibitory Activity
Stably expressing cell line (1321N1 cell transfected with the human P2X7 receptor gene (GenBank accession number NM_002502.5 including T606C and G952A SNP)) was used. The cells were seeded in a 384-well microtiter plate at a concentration of 8000 cells/well and cultured in the medium (10% fetal bovine serum, 25 mM HEPES, 1% penicillin and streptomycin in DMEM) for one day at 37° C. under 5% carbon dioxide atmosphere. After replacing with 20 μL of the HBSS buffer (20 mM HEPES, 55.6 mM D-glucose, 1×HBSS(−), pH7.4-7.5). 16 μL of 17.3 μM Yo-Pro solution in the HBSS buffer was added. The plate was placed in high-throughput cellular screening system FLIPR TETRA (Molecullar Devices, LLC.) and 15 μL of 130 μM BzATP solution in the HBSS buffer was added. Measurement, of fluorescence intensity by FLIPR TETRA was started. After eight minutes, 15 μL of DMSO solutions containing different concentrations of the compound of the present invention as prepared by dilution with the HBSS buffer were dispensed to each well through the built-in automatic dispenser, and the measurement of fluorescence intensity was continued for 20 minutes. […] Changing values of fluorescence intensity by the compound of the present invention were calculated by difference between maximum and minimum fluorescence intensity for 20 minutes. Inhibition ratios (%) were calculated from the following equation:
[formula] IC50 was calculated using Logistic approximation.

[1] = 1321N1 cells expressing human P2X7 receptor, BzATP stimulation, Yo-Pro uptake, read-out: IC50 (antagonistic activity for the human P2X7 receptor)
[2] = 1321N1 cells expressing human P2X7 receptor, BzATP stimulation, Yo-Pro uptake, read-out: IC50 (antagonistic activity for the human P2X7 receptor), class
[3] = antagonistic activity for the human P2X7 receptor, 1321N1 cells expressing human P2X7, BzATP-stimulated Yo-Pro uptake, read-out: IC50

Row | Structure (SMILES) | pIC50 [2] | further results
1 | COc1cn(Cc2ccc(F)c(Cl)c2)c(Nc2cc3sc(C)nc3cc2C)cc1=O [Compound I-0033] |  | pIC50 [1]: 7.31
2 | Cc1c(Cl)cccc1Nc1nc(=O)c(OOC(C)(C)C)cn1Cc1ccccc1 [Compound I-0111] | 6.30 to 7.00 | 
3 | COc1cn(Cc2ccccc2)c(Nc2cccc(C)c2Cl)nc1=O [Compound I-0112] | 7.00 to 8.00 | 
4 | COc1cc(C)c(Nc2nc(=O)c(OC)cn2Cc2cccc(F)c2)cc1C [Compound I-0249] | > 8.00 | 
5 | COc1cn(Cc2ccccc2)c(Oc2cc(C)c(C)cc2C)nc1=O [Compound I-0357] | 6.00 to 6.30 | 
6 | COc1cn(Cc2ccc(F)c(Cl)c2)c(Oc2cc(C)c(C)cc2C)nc1=O [Compound I-0358] |  | pIC50 [1]: 6.80
7 | COc1cn(Cc2cccc(OC(F)F)c2)c(Nc2cccc(Cl)c2C)nc1=O [Compound I-0422] | 6.00 to 6.30 | 
8 | COc1cc(C)c(Nc2nc(=O)c(OC)cn2Cc2cc(F)cc(Cl)c2)cc1C [Compound I-0446] | > 8.00 | 
9 | CCc1cc(OC)ccc1Nc1nc(=O)c(OC)cn1Cc1cc(F)cc(Cl)c1 [Compound I-0447] | > 8.00 | 
10 | COc1cn(Cc2ccccc2)c(Nc2cc(S(C)(=O)=O)c(C)cc2C)nc1=O [Compound I-0448] | 7.00 to 8.00 | 
11 | COc1cn(Cc2ccc(F)c(Cl)c2)c(Nc2cc(S(C)(=O)=O)c(C)cc2C)nc1=O [Compound I-0449] | > 8.00 | 
12 | CCc1ccc(F)cc1Nc1nc(=O)c(OC)cn1Cc1ccccc1 [Compound I-0450] | 7.00 to 8.00 | 
13 | COc1cn(Cc2cc(F)cc(F)c2)c(NCc2cccc(Cl)c2C)nc1=O [Compound I-0452] |  | pIC50 [1]: 6.96
14 | CCOc1ccc(C)c(Nc2nc(=O)c(OC)cn2Cc2ccc(F)c(F)c2)c1 [Compound I-0457] | > 8.00 | 
15 | CCOc1ccc(C)c(Nc2nc(=O)c(OC)cn2Cc2cc(F)cc(F)c2)c1 [Compound I-0458] | 7.00 to 8.00 | 
16 | CCOc1ccc(C)c(Nc2nc(=O)c(OC)cn2Cc2ccc(F)c(Cl)c2)c1 [Compound I-0459] | > 8.00 | 
17 | CCOc1ccc(C)c(Nc2nc(=O)c(OC)cn2Cc2cc(F)cc(Cl)c2)c1 [Compound I-0460] | 7.00 to 8.00 | 
18 | COc1cn(Cc2ccc(F)c(F)c2)c(Nc2ccc(C)cc2C)nc1=O [Compound I-0461] | > 8.00 | 

Row | Structure (SMILES) | pIC50 [2] | further results
19 | COc1cn(Cc2cc(F)cc(Cl)c2)c(Nc2ccc(C)cc2C)nc1=O [Compound I-0462] | 7.00 to 8.00 | 
20 | COc1cn(Cc2cc(F)cc(F)c2)c(Nc2ccc(C)cc2C)nc1=O [Compound I-0463] | > 8.00 | 
21 | COc1cc(C)c(Nc2nc(=O)c(OC)cn2Cc2ccccc2)cc1Cl [Compound I-0464] | > 8.00 | 
22 | COc1cc(C)c(Nc2nc(=O)c(OC)cn2Cc2ccc(F)c(Cl)c2)cc1Cl [Compound I-0465] | > 8.00 | 
23 | COc1cn(Cc2cccc(Cl)c2)c(Nc2cccc(C(F)(F)F)c2C)nc1=O [Compound I-0466] | 7.00 to 8.00 | 
24 | COc1cc(Nc2nc(=O)c(OC)cn2Cc2cccc(F)c2)c(C)cc1Cl [Compound I-0474] | > 8.00 | 
25 | COc1cc(Nc2nc(=O)c(OC)cn2Cc2ccc(F)cc2)c(C)cc1Cl [Compound I-0475] | > 8.00 | 
26 | COc1cccc(Nc2nc(=O)c(OC)cn2Cc2cccc(Cl)c2)c1C [Compound I-0476] | > 8.00 | 
27 | COc1cccc(Nc2nc(=O)c(OC)cn2Cc2ccc(F)c(F)c2)c1C [Compound I-0477] | > 8.00 | 
28 | COc1cccc(Nc2nc(=O)c(OC)cn2Cc2ccc(F)c(Cl)c2)c1C [Compound I-0478] | > 8.00 | 
29 | COc1cn(Cc2cc(F)cc(Cl)c2)c(Nc2cc(OCC(F)(F)F)ccc2C)nc1=O [Compound I-0498] | 6.30 to 7.00 | 
30 | COc1cn(Cc2cc(F)c(F)c(F)c2)c(Cc2cccc3[nH]c(=O)ccc23)nc1=O [Compound I-0602] |  | pIC50 [3]: 6.30 to 7.00
31 | COC1CN(Cc2ccc(F)c(F)c2)C(Nc2cc(S(C)(=O)=O)c(C)cc2C)=NC1=O (stereo not drawn) [Compound I-0605] |  | pIC50 [3]: 7.00 to 8.00
32 | COc1cn(Cc2ccccc2)c(Nc2ccc(C)cc2F)nc1=O [Compound I-0762] |  | pIC50 [3]: 6.30 to 7.00
33 | COc1cn(Cc2ccc(F)c(Cl)c2)c(Nc2c(C)cc3c(c2C)COC3)nc1=O [Compound I-0907] |  | pIC50 [3]: > 8.00
34 | COc1cc(C)c(Nc2nc(=O)cc(C)n2Cc2cc(F)c(F)c(F)c2)cc1OC [Compound I-1153] |  | pIC50 [3]: > 8.00
35 | COc1ccc(NC2=NC(=O)CC(C)N2Cc2cc(F)c(F)c(F)c2)c(C)c1 (stereo not drawn) [Compound I-1167] |  | pIC50 [3]: > 8.00
36 | Cc1cc(F)c(-c2cccn(C)c2=O)cc1Nc1nc(=O)c(F)cn1Cc1cc(F)c(F)c(F)c1 [Compound I-1222] |  | pIC50 [3]: > 8.00
